# Laboratory results: US12624018B1, “Inhibitors of RIPK2 and medical uses thereof” (Odyssey Therapeutics, Inc., priority 2022, dated 2026)
# Assays:
# human NOD2 signaling = experiment: Inhibition of human NOD2 signaling in HEK-Blue-hNOD2 cells (L18-MDP stimulated, SEAP reporter); format: cell-based; details: Homo sapiens, HEK-Blue hNOD2, HEK-Blue-hNOD2 cells, NOD2 ligand stimulation, SEAP reporter; read-out: hNOD2 IC50
# How it was run: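 Read-out is SEAP absorbance at 620 nm after 3 h QUANTI-Blue development of supernatant from HEK293 cells carrying NOD2 and a SEAP reporter (12500/well). Cells got compound (10 points, 3-fold dilutions) and 0.5 ng/mL L18-MDP for 24 h at 37 °C; percent inhibition vs stimulated/unstimulated controls, 4-parameter IC50.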
# RIPK2 enzyme = biological target: T1, RIPK2 enzyme (Homo sapiens, UniProt O43353); experiment: RIPK2 inhibition (ADP-Glo Kinase Assay); format: biochemical; details: RIPK2 5 nM, ATP 150 μM, MBP substrate, read-out: RIPK2 IC50
# T1 construct: purchased Carna 09-128
# T1 sequence (O43353 1-299 limits assumed): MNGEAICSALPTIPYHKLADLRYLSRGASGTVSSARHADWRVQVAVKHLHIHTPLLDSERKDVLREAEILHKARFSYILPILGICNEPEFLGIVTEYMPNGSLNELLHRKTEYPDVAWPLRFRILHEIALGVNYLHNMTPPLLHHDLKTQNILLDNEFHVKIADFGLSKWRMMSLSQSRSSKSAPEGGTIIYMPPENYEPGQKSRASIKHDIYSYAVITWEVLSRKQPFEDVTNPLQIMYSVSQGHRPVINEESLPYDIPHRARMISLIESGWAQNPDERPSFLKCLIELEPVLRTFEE
# How it was run: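 Swine MBP substrate; compound and 5 nM RIPK2 first mixed for 30 min at room temperature; buffer pH 7.5 HEPES 50 mM with 10 mM MgCl2, 2 mM DTT, 1 mM EGTA, Brij-35, BSA.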
# [1] = biological target: T2, RIPK2 and XIAP protein-protein interaction (Homo sapiens, UniProt O43353); experiment: Inhibition of the interaction of RIPK2 with XIAP (NanoBRET in HEK293T cells); format: cell-based; details: RIPK2 HaloTag / XIAP NanoLuc, read-out: NanoBRET Scaffolding IC50
# T2 construct: the N-terminus of full-length RIPK2 was appended with the HaloTag fusion protein; expressed in transfected cells; host or cells: HEK293T
# T2 sequence (O43353 whole entry, the tested form may be a part): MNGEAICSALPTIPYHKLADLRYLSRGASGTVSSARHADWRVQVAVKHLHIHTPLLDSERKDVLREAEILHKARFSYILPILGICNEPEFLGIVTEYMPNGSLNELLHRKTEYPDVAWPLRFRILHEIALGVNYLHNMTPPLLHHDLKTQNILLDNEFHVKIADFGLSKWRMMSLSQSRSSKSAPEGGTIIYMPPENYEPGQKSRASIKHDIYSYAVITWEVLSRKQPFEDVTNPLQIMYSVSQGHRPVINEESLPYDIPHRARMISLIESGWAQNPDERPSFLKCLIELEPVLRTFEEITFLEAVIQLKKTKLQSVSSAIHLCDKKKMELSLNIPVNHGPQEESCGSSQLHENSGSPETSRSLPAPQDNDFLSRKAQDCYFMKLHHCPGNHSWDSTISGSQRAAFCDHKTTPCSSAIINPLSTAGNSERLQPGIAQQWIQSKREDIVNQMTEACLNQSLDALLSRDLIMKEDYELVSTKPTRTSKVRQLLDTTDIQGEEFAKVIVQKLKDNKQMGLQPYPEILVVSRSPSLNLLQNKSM
# How it was run: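 HEK293T cells transiently co-transfected with HaloTag-RIPK2 (N-terminal) and XIAP-NanoLuc (C-terminal) full-length fusions, grown 24 h at 37° C. in Opti-MEM with 4% FBS. Compounds tested as 10-point 3-fold dilutions; NanoBRET ratio taken as 618 nm acceptor over 460 nm donor emission.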
SMILES,IC50 (human NOD2 signaling),IC50 (RIPK2 enzyme),IC50 [1]
"CNC(=O)c1ccc2nccc(Oc3ccc(CC(=O)Nc4cnn(C56CC(C5)C6)c4)cc3C)c2c1 [Compound 500, 4-(4-(2-((1-(bicyclo[1.1.1]pentan-1-yl)-1H-pyrazol-4-yl)amino)-2-oxoethyl)-2-methylphenoxy)-N-methylquinoline-6-carboxamide]",0.4 nM,< 2.5 nM,7.4 nM
"Cc1cc(CC(=O)Nc2cnn(C34CC(C3)C4)c2)c(F)cc1Oc1ccnc2ccc(C(N)=O)cc12 [Compound 501, 4-(4-(2-((1-(bicyclo[1.1.1]pentan-1-yl)-1H-pyrazol-4-yl)amino)-2-oxoethyl)-5-fluoro-2-methylphenoxy)quinoline-6-carboxamide]",2.2 nM,< 2.5 nM,62.9 nM
"CNC(=O)c1ccc2nccc(Oc3cc(F)c(CC(=O)Nc4cnn(C56CC(C5)C6)c4)cc3C)c2c1 [Compound 502, 4-(4-(2-((1-(bicyclo[1.1.1]pentan-1-yl)-1H-pyrazol-4-yl)amino)-2-oxoethyl)-5-fluoro-2-methylphenoxy)-N-methylquinoline-6-carboxamide]",0.8 nM,< 2.5 nM,17.5 nM
"Cc1c(Oc2ccnc3ccc(C(N)=O)cc23)cc(F)c(CC(=O)Nc2cnn(C(C)(C)C)c2)c1F [Compound 503, 4-(4-(2-((1-(tert-butyl)-1H-pyrazol-4-yl)amino)-2-oxoethyl)-3,5-difluoro-2-methylphenoxy)quinoline-6-carboxamide]",0.2 nM,< 2.5 nM,63.1 nM
"CNC(=O)c1ccc2nccc(Oc3cc(F)c(CC(=O)Nc4cnn(C(C)(C)C)c4)c(F)c3C)c2c1 [Compound 504, 4-(4-(2-((1-(tert-butyl)-1H-pyrazol-4-yl)amino)-2-oxoethyl)-3,5-difluoro-2-methylphenoxy)-N-methylquinoline-6-carboxamide]",0.2 nM,< 2.5 nM,3.4 nM
"Cc1cc(CC(=O)Nc2cnn(C(C)(C)C)c2)cc(C)c1Oc1ccnc2ccc(C(N)=O)cc12 [Compound 505, 4-(4-(2-((1-(tert-butyl)-1H-pyrazol-4-yl)amino)-2-oxoethyl)-2,6-dimethylphenoxy)quinoline-6-carboxamide]",3.5 nM,< 2.5 nM,128 nM
"CNC(=O)c1ccc2nccc(Oc3c(C)cc(CC(=O)Nc4cnn(C(C)(C)C)c4)cc3C)c2c1 [Compound 506, 4-(4-(2-((1-(tert-butyl)-1H-pyrazol-4-yl)amino)-2-oxoethyl)-2,6-dimethylphenoxy)-N-methylquinoline-6-carboxamide]",2.2 nM,< 2.5 nM,73.6 nM
"NC(=O)c1ccc2nccc(Oc3cc(F)c(CC(=O)Nc4cnn(C56CC(C5)C6)c4)cc3Cl)c2c1 [Compound 509, 4-(4-(2-((1-(bicyclo[1.1.1]pentan-1-yl)-1H-pyrazol-4-yl)amino)-2-oxoethyl)-2-chloro-5-fluorophenoxy)quinoline-6-carboxamide]",14.2 nM,< 2.5 nM,189 nM
"CNC(=O)c1ccc2nccc(Oc3cc(F)c(CC(=O)Nc4cnn(C56CC(C5)C6)c4)cc3Cl)c2c1 [Compound 510, 4-(4-(2-((1-(bicyclo[1.1.1]pentan-1-yl)-1H-pyrazol-4-yl)amino)-2-oxoethyl)-2-chloro-5-fluorophenoxy)-N-methylquinoline-6-carboxamide]",8.4 nM,< 2.5 nM,172 nM
"Cc1cc(CC(=O)Nc2cnn(C(C)(C)C)c2)c(F)cc1Oc1ccnc2ccc(C(=O)NC34CC(C3)C4)cc12 [Compound 513, N-(bicyclo[1.1.1]pentan-1-yl)-4-(4-(2-((1-(tert-butyl)-1H-pyrazol-4-yl)amino)-2-oxoethyl)-5-fluoro-2-methylphenoxy)quinoline-6-carboxamide]",3.1 nM,< 2.5 nM,34.4 nM
"CNC(=O)c1ccc2nccc(Oc3c(C)cc(CC(=O)Nc4cnn(C(C)(C)C)c4)cc3Cl)c2c1 [Compound 515, 4-(4-(2-((1-(tert-butyl)-1H-pyrazol-4-yl)amino)-2-oxoethyl)-2-chloro-6-methylphenoxy)-N-methylquinoline-6-carboxamide]",1.4 nM,< 2.5 nM,170 nM
"Cc1cc(CC(=O)Nc2cnn(C(C)(C)C)c2)cc(Cl)c1Oc1ccnc2ccc(C(N)=O)cc12 [Compound 516, 4-(4-(2-((1-(tert-butyl)-1H-pyrazol-4-yl)amino)-2-oxoethyl)-2-chloro-6-methylphenoxy)quinoline-6-carboxamide]",1 nM,< 2.5 nM,103 nM
"CC1(NC(=O)c2ccc3nccc(Oc4cc(F)c(CC(=O)Nc5cnn(C(C)(C)C)c5)cc4Cl)c3c2)CC1 [Compound 517, 4-(4-(2-((1-(tert-butyl)-1H-pyrazol-4-yl)amino)-2-oxoethyl)-2-chloro-5-fluorophenoxy)-N-(1-methylcyclopropyl)quinoline-6-carboxamide]",2.7 nM,< 2.5 nM,311 nM
"Cc1c(CC(=O)Nc2cnn(C(C)(C)C)c2)ccc(Oc2ccnc3ccc(S(C)(=O)=O)cc23)c1C [Compound 518, N-(1-(tert-butyl)-1H-pyrazol-4-yl)-2-(2,3-dimethyl-4-((6-(methylsulfonyl)quinolin-4-yl)oxy)phenyl)acetamide]",1.5 nM,< 2.5 nM,26.9 nM
"Cc1cc(CC(=O)Nc2cnn(C(C)(C)C)c2)c(F)cc1Oc1ccnc2ccc(-c3nccnc3C(F)(F)F)cc12 [Compound 523, N-(1-(tert-butyl)-1H-pyrazol-4-yl)-2-(2-fluoro-5-methyl-4-((6-(3-(trifluoromethyl)pyrazin-2-yl)quinolin-4-yl)oxy)phenyl)acetamide]",18.5 nM,4.9 nM,133 nM
"Cc1c(Oc2ccnc3ccc(C(N)=O)cc23)cc(F)c(CC(=O)Nc2cnn(C34CC(C3)C4)c2)c1F [Compound 556, 4-(4-(2-((1-(bicyclo[1.1.1]pentan-1-yl)-1H-pyrazol-4-yl)amino)-2-oxoethyl)-3,5-difluoro-2-methylphenoxy)quinoline-6-carboxamide]",0.9 nM,< 2.5 nM,42.1 nM
"CNC(=O)c1ccc2nccc(Oc3cc(F)c(CC(=O)Nc4cnn(C56CC(C5)C6)c4)c(F)c3C)c2c1 [Compound 557, 4-(4-(2-((1-(bicyclo[1.1.1]pentan-1-yl)-1H-pyrazol-4-yl)amino)-2-oxoethyl)-3,5-difluoro-2-methylphenoxy)-N-methylquinoline-6-carboxamide]",0.3 nM,< 2.5 nM,35.1 nM
"[2H]C([2H])([2H])NC(=O)c1ccc2nccc(Oc3cc(F)c(CC(=O)Nc4cnn(C56CC(C5)C6)c4)c(F)c3C)c2c1 [Compound 558, 4-(4-(2-((1-(bicyclo[1.1.1]pentan-1-yl)-1H-pyrazol-4-yl)amino)-2-oxoethyl)-3,5-difluoro-2-methylphenoxy)-N-(methyl-d3)quinoline-6-carboxamide]",0.7 nM,< 2.5 nM,57.3 nM
"Cc1cc(CC(=O)Nc2cnn(C(C)(C)C)c2)ccc1Oc1ccnc2ccc(CS(C)(=O)=O)cc12 [Compound 560, N-(1-(tert-butyl)-1H-pyrazol-4-yl)-2-(3-methyl-4-((6-((methylsulfonyl)methyl)quinolin-4-yl)oxy)phenyl)acetamide]",8.9 nM,< 2.5 nM,301 nM
"Cc1c(Oc2ccnc3ccc(CS(C)(=O)=O)cc23)cc(F)c(CC(=O)Nc2cnn(C(C)(C)C)c2)c1F [Compound 562, N-(1-(tert-butyl)-1H-pyrazol-4-yl)-2-(2,6-difluoro-3-methyl-4-((6-((methylsulfonyl)methyl)quinolin-4-yl)oxy)phenyl)acetamide]",1.2 nM,< 2.5 nM,61.1 nM
"Cc1cc(CC(=O)Nc2cnn(C(C)(C)C)c2)c(F)cc1Oc1ccnc2ccc(CC(N)=O)cc12 [Compound 566, 2-(4-((6-(2-amino-2-oxoethyl)quinolin-4-yl)oxy)-2-fluoro-5-methylphenyl)-N-(1-(tert-butyl)-1H-pyrazol-4-yl)acetamide]",11.1 nM,< 2.5 nM,459 nM
"Cc1cc(CC(=O)Nc2cnn(C(C)(C)C)c2)c(F)cc1Oc1ccnc2ccc(C(C)(C)C(N)=O)cc12 [Compound 568, 2-(4-(4-(2-((1-(tert-butyl)-1H-pyrazol-4-yl)amino)-2-oxoethyl)-5-fluoro-2-methylphenoxy)quinolin-6-yl)-2-methylpropanamide]",24.4 nM,< 2.5 nM,179 nM
"Cc1cc(CC(=O)Nc2cnn(C(C)(C)C)c2)c(F)cc1Oc1ccnc2ccc(C(F)(F)C(N)=O)cc12 [Compound 572, 2-(4-(4-(2-((1-(tert-butyl)-1H-pyrazol-4-yl)amino)-2-oxoethyl)-5-fluoro-2-methylphenoxy)quinolin-6-yl)-2,2-difluoroacetamide]",1.1 nM,< 2.5 nM,37.2 nM
